These results are taken from patent US20250304612A1, “THERAPEUTIC AGENT FOR BLOOD CANCER” (Aptabio Therapeutics Inc., priority 2017, published 2025).

Holding throughout (experiment): MTT cytotoxicity assay, drug-resistant blood cancer cells
Type in all cases: cell-based

Assay [1] deals with Azacitidine-resistant MOLM13. The settings on record: Homo sapiens, MOLM-13, 120 h, 5 days, read-out: IC50, cytotoxic effects on drug-resistant blood cancer cells. How it is done:
(§1) Each oligonucleotide-modified nucleic acid was diluted in a 10 mM Tris-HCl (pH 7.4) solution to a final concentration of 100 μM. The diluted solution was allowed to stand at 94° C. for 5 minutes and then the tube was allowed to stand on ice. The resulting solution was added with a 2M KCl solution such that a final concentration of the KCl solution became 50 mM, allowed to stand at 60° C. for 3 hours and was slowly cooled to room temperature. Each oligonucleotide was diluted in a 10 mM Tris-HCl (pH 7.4) solution to a concentration of 10 μM, and was allowed to stand at 94° C. for 5 minutes, and the tube was allowed to stand on ice. The resulting solution was added with a 2M KCl solution such that the final concentration of the KCl solution became 50 mM, and allowed to stand at 60° C. for 3 hours and then slowly cooled to room temperature, which was then used for the present Example.
(§2) On the day before the experiment, 190 μl of a culture medium (at a concentration of 10^4 to 10^5 cells/ml) containing blood cancer cells such as HL60, MV-4-11, CCRF-CEM, MOLT-4 and MOLM-13 cell lines, and drug-resistant blood cancer cells such as azacitidine (AZA-1)-resistant MOLM13, decitabine (Dec-5)-resistant MOLM13 and cytarabine (AraC-1)-resistant MOLM13 cell lines, and normal cells such as WI38, CCD-18co and Fa2N4 cells were seeded on a 96-well plate. The next day, 10 μl of the oligonucleotide-modified nucleic acid solution prepared in Example 2 was added and then cultured for 5 days.
(§3) Five days after drug treatment, MTT assay was performed to measure cytotoxicity of the cell lines [see JBC 1999, 26369].

Assay [2] deals with Cytarabine-resistant MOLM13. To be noted: Homo sapiens, MOLM-13, 120 h, 5 days, read-out: IC50, cytotoxic effects on drug-resistant blood cancer cells. How it is done: as §1, §2, §3
Assay [3] concerns Decitabine-resistant MOLM13. To be noted: Homo sapiens, MOLM-13, 120 h, 5 days, read-out: IC50, cytotoxic effects on drug-resistant blood cancer cells. The procedure: as §1, §2, §3
The subject of assay [4] is Cytarabine-resistant HL-60. The settings on record: Homo sapiens, 120 h; Cytarabine-resistant HL-60, MTT, 5 days; read-out: IC50, cytotoxic effects on drug-resistant blood cancer cells.
Assay [5] has as its system Cytarabine-resistant MV-4-11. The settings on record: Homo sapiens, MV4-11, 120 h; Cytarabine-resistant MV-4-11, MTT, 5 days; read-out: IC50, cytotoxic effects on drug-resistant blood cancer cells.

Usually IC50 stands for the concentration needed to halve the response being measured. For the compound `Nc1ccn([C@@H]2O[C@H](CO)[C@@H](O)[C@@H]2O)c(=O)n1` [Cytarabine, cytarabine], the IC50 in assay [1] is 3.5 µM; in assay [2], over 10 µM; in assay [3], 3.49 µM; in assay [4] it was over 30 µM; in assay [5], over 20 µM.
